From US12227480B1 (priority 2023, dated 2025)

System: Mycobacterium tuberculosis H37Rv (ATCC: 25177)
Experiment: Resazurin Microplate Assay (REMA), anti-tubercular activity, H37Rv strain
Assay type: cell-based
Conditions: 192 h, read-out: Anti-tubercular activity against Mycobacterium tuberculosis (MIC), H37Rv

`Cc1cc[n+](CC(=O)c2ccc(F)cc2)cc1.[Br-]` [Compound 3d, 1-(2-(4-Fluorophenyl)-2-oxoethyl)-4-methylpyridin-1-ium bromide] was tested, and the MIC was 8 mg/L.
